Measured values from patent US20260035370A1, “CRYSTAL FORM OF 8-CHLORO-3-PENTYL-3,7-DIHYDRO-1H-PURIN-2,6-DIONE COMPOUND AND PREPARATION METHOD THEREFOR” (Shanton Pharma Pte. Ltd., priority 2023, published 2026).

What was measured:
[1] = Thermodynamic stability of crystal forms; assay type: physicochemical
Protocol: (§1) The dehydration risk of the monohydrate crystal form was also evaluated by using VT-XRPD (variable temperature X-ray powder diffraction) in the present invention. […] The stability of crystal forms I and IV in the solid-state was also studied in the present invention.

[2] = Stability of crystal form I in the formulation; assay type: physicochemical
Protocol: as §1

[3] = In vivo PK after oral administration in SD rats; conditions: for Half-life (t1/2), comparison in words: SD rats, PO, summary of Table 2; for t1/2: male SD rats, PO 2 mg/kg, plasma, mean ± SD, n = 3
Protocol: Test samples: the compound of represented by formula (1), and crystal forms I and II of the compound of formula (1) were prepared according to Examples 1-3;
The tris (i.e. tris(hydroxymethyl)aminomethane) salt crystal form of the compound 8-chloro-3-pentyl-3,7-dihydro-1H-purine-2,6-dione was prepared with reference to WO2010/068581A1.
Oral administration (PO) of four samples:
The concentrations of the test substances were output using Analyst 1.6.2 from AB Sciex. Parameters such as mean, standard deviation, and variation coefficient were calculated using Microsoft Excel (those directly output by Analyst 1.6.2 were not recalculated). PK parameters were calculated using Pharsight Phoenix 6.2 software (NCA model).

[4] = High humidity test (influencing factor stability test); assay type: physicochemical; conditions: for Change of purities/related substance contents: under high humidity and light exposure (summary of Table 1)
Protocol: (§2) Test samples: crystal form I and crystal form II of the compound of formula (1) were prepared according to the above examples.
(§3) Test conditions for investigating the influencing factors:
(§4) High humidity test: Crystal form I and crystal form II of the compound of formula (1) were laid on a dry and clean watch glass, and kept at 40° C.±2° C., and 75% RH±5% for 10 days. Samples were taken respectively on Day 5 and Day 10. The purity and the related substance content of the compound of formula (1) were determined and compared with those of the sample taken on Day 0.

[5] = Kinetic stability in the solid state (long-term storage); assay type: physicochemical; conditions: stored at 10° C.-30° C. in double-sealed aluminum packaging and plastic self-sealing bags for more than 6 years
Protocol: as §1

[6] = Solid-state stability under accelerated conditions, open container; assay type: physicochemical; conditions: one month
Protocol: as §1

[7] = Dehydration risk of monohydrate crystal form by VT-XRPD; assay type: physicochemical
Protocol: as §1

[8] = Hygroscopicity test according to Chinese Pharmacopoeia; assay type: physicochemical; conditions: for Weight gain due to hygroscopicity: 25±1° C., 80%+2% relative humidity; for Hygroscopicity, summary in words: summary of hygroscopicity test
Protocol: Test Example 3: Hygroscopicity Test (According to Chinese Pharmacopoeia, Guidelines for Drug
Hygroscopicity Testing, at 25±1° C., and 80%+2% Relative Humidity)
An appropriate amount of the sample from the examples was taken for the hygroscopicity test.

[9] = Photostability test (influencing factor stability test); assay type: physicochemical; conditions: illuminance 5000 Lx ± 500 Lx
Protocol: as §2, §3
as §4, with “Photostablity” for “High humidity”, “an illuminance of 5000 Lx±500 Lx in a light box” for “40° C.±2° C., and 75% RH±5%”

uric acid = conditions: cited from earlier work
[10] = Transformation of crystal form on standing under ambient conditions; assay type: physicochemical; conditions: 25-30° C., 70-85% RH, about 10 hours
[11] = compared with the free acid; cited from earlier work
[12] = cited from earlier work
[13] = 40° C. ± 2° C./75% ± 5% RH, Day 5
[14] = 40° C. ± 2° C./75% ± 5% RH, Day 10
[15] = Day 0, sample before exposure (baseline for both tests)

CCCCCn1c(=O)[nH]c(=O)c2[nH]c(Cl)nc21 [Crystal form I, 8-chloro-3-pentyl-3,7-dihydro-1H-purine-2,6-dione]
Thermodynamic stability for pharmaceutical applications [1]: advantageous
Content of crystal form III in the formulation ([2]; formulation stored at 25° C./60% RH for 9 months): below LOD
Content of crystal form III in the formulation ([2]; formulation stored at 40° C./75% RH for 6 months): below LOD
Half-life (t1/2), comparison in words [3]: longer half-lifes
t1/2 ([3]; 2 mg/kg): 5.28 ± 1.10 h
Purity [4, 13]: 99.5%
Related substance [4, 13]: 0.46%
Purity [4, 14]: 99.6%
Related substance [4, 14]: 0.42%
Purity [4, 15]: 99.6%
Related substance [4, 15]: 0.45%
Change of purities/related substance contents [4]: changed very little
Crystal form after long-term storage [5]: remained unchanged
Crystal form transformation after storage ([6]; 25° C./92.5% RH): did not transform
Crystal form transformation after storage ([6]; 40° C./75% RH): did not transform
Dehydration risk [7]: very low
Weight gain due to hygroscopicity [8]: <0.2%
Hygroscopicity, summary in words [8]: extremely low hygroscopicity
Purity ([9]; Day 5): 99.6%
Related substance ([9]; Day 5): 0.44%
Purity ([9]; Day 10): 99.5%
Related substance ([9]; Day 10): 0.46%

CCCCCn1c(=O)[nH]c(=O)c2[nH]c(Cl)nc21 [Formula (1), 8-chloro-3-pentyl-3,7-dihydro-1H-purine-2,6-dione]
Uric acid-lowering effect (uric acid): good uric acid-lowering effect

CCCCCn1c(=O)[nH]c(=O)c2[nH]c(Cl)nc21 [Crystal form IV, 8-chloro-3-pentyl-3,7-dihydro-1H-purine-2,6-dione]
Crystal form transformation after storage ([6]; 25° C./92.5% RH): transformed into crystal form I
Crystal form transformation after storage ([6]; 40° C./75% RH): transformed into crystal form I

CCCCCn1c(=O)[nH]c(=O)c2[nH]c(Cl)nc21 [Solid product of Example 1, 8-chloro-3-pentyl-3,7-dihydro-1H-purine-2,6-dione monohydrate, reference compound]
t1/2 ([3]; monohydrate, 2 mg/kg): 2.32 ± 0.09 h

CCCCCn1c(=O)[nH]c(=O)c2[nH]c(Cl)nc21 [Crystal form V, 8-chloro-3-pentyl-3,7-dihydro-1H-purine-2,6-dione]
Crystal form transformation under ambient conditions [10]: transform into crystal form IV

CCCCCn1c(=O)[nH]c(=O)c2[nH]c(Cl)nc21 [Crystal form III, 8-chloro-3-pentyl-3,7-dihydro-1H-purine-2,6-dione]
Thermodynamic stability for pharmaceutical applications [1]: suboptimal

CCCCCn1c(=O)[nH]c(=O)c2[nH]c(Cl)nc21.NC(CO)(CO)CO [tris salt crystal form, 8-chloro-3-pentyl-3,7-dihydro-1H-purine-2,6-dione tris(hydroxymethyl)aminomethane salt]
Cmax [11]: increased Cmax
Tmax [11]: decreased Tmax
t1/2 [3]: 2.38 ± 0.17 h
Solubility compared with the free acid [12]: higher solubility

CCCCCn1c(=O)[nH]c(=O)c2[nH]c(Cl)nc21 [Crystal form II, 8-chloro-3-pentyl-3,7-dihydro-1H-purine-2,6-dione]
Thermodynamic stability for pharmaceutical applications [1]: advantageous
Half-life (t1/2), comparison in words [3]: longer half-lifes
t1/2 ([3]; 2 mg/kg): 4.26 ± 0.61 h
Purity [4, 13]: 99.7%
Related substance [4, 13]: 0.31%
Purity [4, 14]: 99.7%
Related substance [4, 14]: 0.32%
Purity [4, 15]: 99.7%
Related substance [4, 15]: 0.32%
Change of purities/related substance contents [4]: changed very little
Weight gain due to hygroscopicity [8]: <0.2%
Hygroscopicity, summary in words [8]: extremely low hygroscopicity
Purity ([9]; Day 5): 99.7%
Related substance ([9]; Day 5): 0.31%
Purity ([9]; Day 10): 99.7%
Related substance ([9]; Day 10): 0.32%
